Assay results as given in PMC9944328 (Nature Communications, 2023).
Read-outs that look alike come from different tables or passages of the source.

System: SSTR2 mutants
Assay: NanoBiT β-arrestin 1 recruitment assay, HEK293 (SSTR2 mutants);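 on Emax: percent of the maximal wild-type SSTR2 response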
Assay type: cell-based, human
Details: for Fold of WT: β-arrestin recruitment EC50
Experimental: The NanoBiT β-arrestin 1 recruitment assays were carried out according to the method described previously. […] Human full-length SSTR wild-type and mutant vectors were C-terminally fused with a 15-amino acid flexible linker and the small fragment (SmBiT). HEK293 cells were seeded into six-well microplates at a density of 1.0 × 10^6 cells/well and cultured for 24 h at 37 °C with 5% CO2. After that, cells were co-transfected with pcDNA3.1+ vectors encoding SSTR wild-type or mutants and human β-arrestin 1. After transfecting for 24 h, the transfected cells were suspended and seeded into white 96-well plates, and then cultured at 37 °C overnight. After that the medium in each well was exchanged for 90 μl of 0.01% bovine serum albumin containing 20 μl of 50 μM coelenterazine h (Carbosynth) diluted in the HBSS assay buffer and incubated for 40 min at room temperature. Then, ligands diluted in the assay buffer was added to each well and the luminescence intensity was measured using the Synergy H1 microplate reader and detected at room temperature in a time period. All data presented are means of at least three independent experiments.

[1] = β-arrestin recruitment, SSTR2 F127(3.37)A, n=3
[2] = β-arrestin recruitment, SSTR2 F294(7.35)A, n=3, ND = not detected
[3] = β-arrestin recruitment, SSTR2 I284ECL3A, n=3
[4] = β-arrestin recruitment, SSTR2 K291(7.32)A, n=3, ND = not detected
[5] = β-arrestin recruitment, SSTR2 N276(6.55)A, n=3, ND = not detected
[6] = β-arrestin recruitment, SSTR2 W269(6.48)A, n=3
[7] = β-arrestin recruitment, SSTR2 Y50(1.39)A, n=3
[8] = β-arrestin recruitment, SSTR2 Y205(5.35)A, n=3
[9] = β-arrestin recruitment, SSTR2 Y302(7.43)A, n=3

N#Cc1cccc(-c2ccc3ncc(-c4cc(F)cc(F)c4)c(N4CCC(N)CC4)c3c2)c1O [paltusotine]
LogEC50 (β-arrestin1 recruitment) (best-fit, K291A-2): -7.045 | Span (β-arrestin1 recruitment) (best-fit, K291A-2): 143.2 | Top (β-arrestin1 recruitment) (best-fit, K291A-2): 139.9 | Bottom (β-arrestin1 recruitment) (best-fit, K291A-3): -4.699 | LogEC50 (β-arrestin1 recruitment) (best-fit, K291A-3): -6.141 | Span (β-arrestin1 recruitment) (best-fit, K291A-3): 138.3 | Top (β-arrestin1 recruitment) (best-fit, K291A-3): 133.6 | Bottom (β-arrestin1 recruitment) (best-fit, N276A-1): -2.311 | LogEC50 (β-arrestin1 recruitment) (best-fit, N276A-1): -7.135 | Span (β-arrestin1 recruitment) (best-fit, N276A-1): 170 | Top (β-arrestin1 recruitment) (best-fit, N276A-1): 167.7 | Bottom (β-arrestin1 recruitment) (best-fit, N276A-2): -1.74 | LogEC50 (β-arrestin1 recruitment) (best-fit, N276A-2): -7.135 | Span (β-arrestin1 recruitment) (best-fit, N276A-2): 128 | Top (β-arrestin1 recruitment) (best-fit, N276A-2): 126.3 | Bottom (β-arrestin1 recruitment) (best-fit, N276A-3): -2.993 | LogEC50 (β-arrestin1 recruitment) (best-fit, N276A-3): -7.215 | Span (β-arrestin1 recruitment) (best-fit, N276A-3): 180.6 | Top (β-arrestin1 recruitment) (best-fit, N276A-3): 177.6 | Bottom (β-arrestin1 recruitment) (best-fit, Y302A-1): 0.04519 | LogEC50 (β-arrestin1 recruitment) (best-fit, Y302A-1): -6.65 | Span (β-arrestin1 recruitment) (best-fit, Y302A-1): 206.8 | Top (β-arrestin1 recruitment) (best-fit, Y302A-1): 206.8 | Bottom (β-arrestin1 recruitment) (best-fit, Y302A-2): -0.03402 | LogEC50 (β-arrestin1 recruitment) (best-fit, Y302A-2): -6.645 | Span (β-arrestin1 recruitment) (best-fit, Y302A-2): 207.2 | Top (β-arrestin1 recruitment) (best-fit, Y302A-2): 207.2 | Bottom (β-arrestin1 recruitment) (best-fit, Y302A-3): -0.02562 | LogEC50 (β-arrestin1 recruitment) (best-fit, Y302A-3): -6.645 | Span (β-arrestin1 recruitment) (best-fit, Y302A-3): 156 | Top (β-arrestin1 recruitment) (best-fit, Y302A-3): 156 | EC50 (read-out: Best-fit EC50, SSTR2 I284A, run 1): 181 nM | EC50 (read-out: Best-fit EC50, SSTR2 I284A, run 3): 180 nM | EC50 (read-out: Best-fit EC50, SSTR2 Y50A, run 1): 74.4 nM | EC50 (read-out: Best-fit EC50, SSTR2 Y50A, run 2): 65 nM | EC50 (read-out: Best-fit EC50, SSTR2 Y50A, run 3): 66.7 nM | EC50 (read-out: EC50 (best-fit value), SSTR2 W269A, run W269A-1): 300 nM | EC50 (read-out: EC50 (best-fit value), SSTR2 W269A, run W269A-2): 610 nM | EC50 (read-out: EC50 (best-fit value), SSTR2 W269A, run W269A-3): 474 nM | EC50 (read-out: EC50 (best-fit value), SSTR2 Y205A, run Y205A-2): 150 nM | EC50 (read-out: EC50 (best-fit value), SSTR2 Y205A, run Y205A-3): 213 nM | EC50 (read-out: EC50 (best-fit), F127A-1): 210 nM | EC50 (read-out: EC50 (best-fit), F127A-2): 197 nM | EC50 (read-out: EC50 (best-fit), F127A-3): 152 nM | EC50 (read-out: EC50 (β-arrestin1 recruitment), best-fit, D295A-1): 2320 nM | EC50 (read-out: EC50 (β-arrestin1 recruitment), best-fit, D295A-2): 2540 nM | EC50 (read-out: EC50 (β-arrestin1 recruitment), best-fit, D295A-3): 1970 nM | EC50 (read-out: EC50 (β-arrestin1 recruitment), best-fit, F294A-1): 1050 nM | EC50 (read-out: EC50 (β-arrestin1 recruitment), best-fit, F294A-3): 872 nM | EC50 (read-out: EC50 (β-arrestin1 recruitment), best-fit, K291A-1): 79.7 nM | EC50 (read-out: EC50 (β-arrestin1 recruitment), best-fit, K291A-2): 90.2 nM | EC50 (read-out: EC50 (β-arrestin1 recruitment), best-fit, N276A-1): 73.2 nM | EC50 (read-out: EC50 (β-arrestin1 recruitment), best-fit, N276A-3): 61 nM | EC50 (read-out: EC50 (β-arrestin1 recruitment), best-fit, Y302A-1): 224 nM | EC50 (read-out: EC50 (β-arrestin1 recruitment), best-fit, Y302A-2): 226 nM | Fold of WT (SSTR2 D295(7.36)A): 1.22 | Fold of WT (SSTR2 F127(3.37)A): 0.49 | Fold of WT (SSTR2 F294(7.35)A): 2.44 | Fold of WT (SSTR2 I284ECL3A): 0.45 | Fold of WT (SSTR2 K291(7.32)A): 0.21 | Fold of WT (SSTR2 N276(6.55)A): 0.17 | Fold of WT (SSTR2 W269(6.48)A): 2.65 | Fold of WT (SSTR2 Y50(1.39)A): 0.17 | Fold of WT (SSTR2 Y205(5.35)A): 0.42 | Fold of WT (SSTR2 Y302(7.43)A): 0.56 | Emax (β-arrestin recruitment, SSTR2 D295(7.36)A, detected at 10 μM, n=3): 87.12±2.30 %WT | EC50 (β-arrestin recruitment, SSTR2 D295(7.36)A, n=3): 495.7 ± 1.76 nM | EC50 [1]: 198 ± 6.66 nM | Emax [1]: 60.24±1.11 %WT | Emax (β-arrestin recruitment, SSTR2 F208(5.38)A, detected at 10 μM, n=3): 70.89±2.39 %WT | Emax (β-arrestin recruitment, SSTR2 F265(6.44)A, detected at 10 μM, n=3 octreotide, 4 paltusotine): 49.61±1.04 %WT | EC50 [2]: 990.7 ± 5.93 nM | Emax [2]: 114.80±11.09 %WT | Emax (β-arrestin recruitment, SSTR2 I130(3.40)A, detected at 10 μM, n=3): 30.45±0.36 %WT | EC50 [3]: 181 ± 3.33 nM | Emax [3]: 192.70±19.45 %WT | EC50 [4]: 86.7 ± 3.5 nM | Emax [4]: 133.50±14.76 %WT | Emax (β-arrestin recruitment, SSTR2 L99(2.60)A, detected at 10 μM, n=3): 84.26±3.71 %WT | EC50 [5]: 69.1 ± 4.07 nM | Emax [5]: 157.20±15.71 %WT | Emax (β-arrestin recruitment, SSTR2 P220(5.50)A, detected at 10 μM, n=4): 50.55±2.81 %WT | Emax (β-arrestin recruitment, SSTR2 Q102(2.63)A, detected at 10 μM, n=3): 26.07±1.00 %WT | Emax (β-arrestin recruitment, SSTR2 Q126(3.36)A, detected at 10 μM, n=3): 65.37±3.31 %WT | Emax (β-arrestin recruitment, SSTR2 T194(45.51)A, n=3): 95.9±9.02 %WT | EC50 [6]: 1077 ± 6.28 nM | Emax [6]: 50.80±24.99 %WT | EC50 [7]: 68.7 ± 2.87 nM | Emax [7]: 90.74±11.02 %WT | EC50 [8]: 172 ± 2.07 nM | Emax [8]: 152.00±23.85 %WT | EC50 [9]: 225 ± 6.67 nM | Emax [9]: 190.00±17.00 %WT
